From ChEMBL document CHEMBL3751728, “C5-substituted pyrido[2,3-d]pyrimidin-7-ones as highly specific kinase inhibitors targeting the clinical resistance-related EGFRT790Mmutant” (Medchemcomm, 2015)
The source made the active and inactive calls. The rule behind the calls is not given here.

Assays:
[1] = biological target: T1, Epidermal growth factor receptor (Homo sapiens, UniProt P00533); test: Inhibiton of wild type EGFR (unknown origin) using Poly (Glu4Tyr1) as substrate incubated for 1 hr by ELISA; type: single protein
T1 sequence (P00533 whole entry): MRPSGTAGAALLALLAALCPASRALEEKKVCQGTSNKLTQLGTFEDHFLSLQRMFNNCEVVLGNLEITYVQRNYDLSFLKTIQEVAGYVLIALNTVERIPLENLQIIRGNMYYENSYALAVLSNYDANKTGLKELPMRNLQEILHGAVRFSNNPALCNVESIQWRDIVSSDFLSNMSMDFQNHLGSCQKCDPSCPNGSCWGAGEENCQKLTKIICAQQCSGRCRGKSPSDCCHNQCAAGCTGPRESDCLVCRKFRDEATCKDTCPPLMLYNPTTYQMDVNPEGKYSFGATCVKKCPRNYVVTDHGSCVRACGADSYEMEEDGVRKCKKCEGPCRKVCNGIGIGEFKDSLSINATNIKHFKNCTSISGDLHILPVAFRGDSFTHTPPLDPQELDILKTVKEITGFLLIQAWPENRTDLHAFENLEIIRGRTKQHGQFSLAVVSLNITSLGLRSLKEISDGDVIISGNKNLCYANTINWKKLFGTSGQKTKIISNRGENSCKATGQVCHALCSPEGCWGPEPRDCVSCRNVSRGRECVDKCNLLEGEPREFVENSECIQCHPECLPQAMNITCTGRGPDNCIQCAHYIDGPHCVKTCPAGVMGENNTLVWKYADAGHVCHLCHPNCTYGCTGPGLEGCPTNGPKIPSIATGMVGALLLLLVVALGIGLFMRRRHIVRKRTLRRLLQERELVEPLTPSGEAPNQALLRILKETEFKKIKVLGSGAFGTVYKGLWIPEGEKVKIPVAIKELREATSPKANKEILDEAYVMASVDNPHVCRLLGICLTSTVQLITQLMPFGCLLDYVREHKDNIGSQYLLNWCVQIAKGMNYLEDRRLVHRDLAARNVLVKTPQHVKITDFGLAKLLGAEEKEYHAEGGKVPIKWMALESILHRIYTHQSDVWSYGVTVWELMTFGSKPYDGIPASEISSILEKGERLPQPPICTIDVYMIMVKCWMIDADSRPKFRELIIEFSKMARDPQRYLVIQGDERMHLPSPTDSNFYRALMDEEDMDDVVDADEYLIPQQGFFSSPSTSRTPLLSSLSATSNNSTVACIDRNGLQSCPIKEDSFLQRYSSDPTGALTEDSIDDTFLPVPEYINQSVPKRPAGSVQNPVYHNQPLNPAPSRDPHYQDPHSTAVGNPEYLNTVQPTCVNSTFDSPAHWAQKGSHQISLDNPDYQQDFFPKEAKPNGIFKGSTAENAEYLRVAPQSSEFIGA

[2] = biological target: T2, Epidermal growth factor receptor (Homo sapiens, UniProt P00533, L858R/T790M); type: protein assay
T2 sequence (P00533 25-1210 T790M/L858R limits assumed): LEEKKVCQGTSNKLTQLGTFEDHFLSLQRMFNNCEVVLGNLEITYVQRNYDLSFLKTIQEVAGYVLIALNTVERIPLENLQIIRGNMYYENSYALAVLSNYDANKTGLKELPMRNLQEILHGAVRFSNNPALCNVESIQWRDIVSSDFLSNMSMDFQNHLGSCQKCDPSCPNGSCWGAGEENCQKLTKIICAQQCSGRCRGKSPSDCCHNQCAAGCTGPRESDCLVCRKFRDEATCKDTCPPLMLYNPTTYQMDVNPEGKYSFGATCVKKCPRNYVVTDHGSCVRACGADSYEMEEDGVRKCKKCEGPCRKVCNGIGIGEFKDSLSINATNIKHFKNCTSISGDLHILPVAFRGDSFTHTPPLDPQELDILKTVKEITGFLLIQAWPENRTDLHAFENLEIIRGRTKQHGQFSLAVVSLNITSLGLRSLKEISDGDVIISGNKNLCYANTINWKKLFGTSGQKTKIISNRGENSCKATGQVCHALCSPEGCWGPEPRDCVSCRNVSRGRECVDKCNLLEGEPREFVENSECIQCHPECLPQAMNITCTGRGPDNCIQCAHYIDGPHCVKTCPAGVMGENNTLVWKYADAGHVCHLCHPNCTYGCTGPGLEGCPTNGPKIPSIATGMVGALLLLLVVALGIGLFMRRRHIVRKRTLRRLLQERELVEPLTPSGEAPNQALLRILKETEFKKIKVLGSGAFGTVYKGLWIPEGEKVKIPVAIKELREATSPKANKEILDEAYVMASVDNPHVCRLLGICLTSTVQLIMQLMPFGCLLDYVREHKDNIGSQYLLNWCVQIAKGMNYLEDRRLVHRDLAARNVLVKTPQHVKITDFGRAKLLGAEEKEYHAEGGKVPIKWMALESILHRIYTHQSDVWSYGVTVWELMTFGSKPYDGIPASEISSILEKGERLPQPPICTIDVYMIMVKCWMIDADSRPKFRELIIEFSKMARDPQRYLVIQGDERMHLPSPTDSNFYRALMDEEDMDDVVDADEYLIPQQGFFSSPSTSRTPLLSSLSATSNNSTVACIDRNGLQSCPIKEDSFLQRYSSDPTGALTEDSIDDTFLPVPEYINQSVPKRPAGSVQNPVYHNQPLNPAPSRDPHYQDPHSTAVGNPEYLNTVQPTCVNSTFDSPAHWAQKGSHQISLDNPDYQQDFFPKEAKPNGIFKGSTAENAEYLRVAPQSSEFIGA

[3] = tested on: NCI-H1975; test: Effect on total EGFR T790M mutant level in EGF-stimulated human NCI-H1975 cells preincubated for 2 hrs followed by EGF stimulation measured after 15 mins by Western blot analysis; type: ADME, cell-based; conditions: nci-h1975, 0.25 h
[4] = tested on: NCI-H1975; test: Cytotoxicity against human NCI-H1975 harboring EGFR L858R/T790M mutant after 72 hrs by SRB assay; type: functional, cell-based; conditions: NCI-H1975, 72 h
[5] = tested on: A-431; test: Cytotoxicity against human A431 cells overexpressing wild type EGFR after 72 hrs by SRB assay; type: cell-based; conditions: A-431, 72 h
[6] = tested on: NCI-H1975; test: Selectivity index, ratio of IC50 for human A431 cells overexpressing wild type EGFR to IC50 for human NCI-H1975 cells harboring EGFR L858R/T790M mutant
[7] = organism: Homo sapiens; test: Selectivity index, ratio of IC50 for wild type EGFR (unknown origin) to IC50 for EGFR L858R/T790M mutant (unknown origin)
[8] = biological target: T1, Epidermal growth factor receptor
[9] = biological target: T2, Epidermal growth factor receptor
[10] = organism: Homo sapiens; test: Selectivity ratio of Kd for wild type human EGFR to Kd for human EGFR L858R/T790M mutant
[11] = tested on: NCI-H1975; test: Effect on total AKT level in EGF-stimulated human NCI-H1975 cells expressing EGFR T790M mutant preincubated for 2 hrs followed by EGF stimulation measured after 15 mins by Western blot analysis; type: ADME, cell-based; conditions: nci-h1975, 0.25 h
[12] = tested on: NCI-H1975; test: Effect on total ERK level in EGF-stimulated human NCI-H1975 cells expressing EGFR T790M mutant preincubated for 2 hrs followed by EGF stimulation measured after 15 mins by Western blot analysis; type: ADME, cell-based; conditions: nci-h1975, 0.25 h
[13] = biological target: T1, Epidermal growth factor receptor; test: Inhibition of EGF-stimulated wild type EGFR phosphorylation in human A431 cells at 100 nM preincubated for 2 hrs followed by EGF stimulation measured after 15 mins by Western blot analysis; type: cell-based; conditions: a-431, 0.25 h, 0.1 µM
[14] = biological target: T1, Epidermal growth factor receptor; test: Inhibition of EGF-stimulated wild type EGFR phosphorylation in human A431 cells assessed as suppression of AKT phosphorylation at 100 nM preincubated for 2 hrs followed by EGF stimulation measured after 15 mins by Western blot analysis; type: cell-based; conditions: a-431, 0.25 h, 0.1 µM
[15] = biological target: T1, Epidermal growth factor receptor; test: Inhibition of EGF-stimulated wild type EGFR phosphorylation in human A431 cells assessed as suppression of ERK phosphorylation at 100 nM preincubated for 2 hrs followed by EGF stimulation measured after 15 mins by Western blot analysis; type: cell-based; conditions: a-431, 0.25 h, 0.1 µM
[16] = tested on: NCI-H1975; test: Selectivity index, ratio of IC50 for human GES1 cells to IC50 for human NCI-H1975 cells harboring EGFR L858R/T790M mutant
[17] = tested on: NCI-H1975; test: Selectivity index, ratio of IC50 for human LO2 cells to IC50 for human NCI-H1975 cells harboring EGFR L858R/T790M mutant
[18] = tested on: NCI-H1975; test: Selectivity index, ratio of IC50 for human WI38 cells to IC50 for human NCI-H1975 cells harboring EGFR L858R/T790M mutant
[19] = tested on: NCI-H1975; test: Selectivity index, ratio of IC50 for human MCF10A cells to IC50 for human NCI-H1975 cells harboring EGFR L858R/T790M mutant
[20] = tested on: Epidermal growth factor receptor (Homo sapiens), P00533 [L858R,T790M]; conditions: H1975, 1 uM
Chain of Epidermal growth factor receptor (Homo sapiens), P00533 [L858R,T790M] (P00533 whole entry T790M/L858R, looked up): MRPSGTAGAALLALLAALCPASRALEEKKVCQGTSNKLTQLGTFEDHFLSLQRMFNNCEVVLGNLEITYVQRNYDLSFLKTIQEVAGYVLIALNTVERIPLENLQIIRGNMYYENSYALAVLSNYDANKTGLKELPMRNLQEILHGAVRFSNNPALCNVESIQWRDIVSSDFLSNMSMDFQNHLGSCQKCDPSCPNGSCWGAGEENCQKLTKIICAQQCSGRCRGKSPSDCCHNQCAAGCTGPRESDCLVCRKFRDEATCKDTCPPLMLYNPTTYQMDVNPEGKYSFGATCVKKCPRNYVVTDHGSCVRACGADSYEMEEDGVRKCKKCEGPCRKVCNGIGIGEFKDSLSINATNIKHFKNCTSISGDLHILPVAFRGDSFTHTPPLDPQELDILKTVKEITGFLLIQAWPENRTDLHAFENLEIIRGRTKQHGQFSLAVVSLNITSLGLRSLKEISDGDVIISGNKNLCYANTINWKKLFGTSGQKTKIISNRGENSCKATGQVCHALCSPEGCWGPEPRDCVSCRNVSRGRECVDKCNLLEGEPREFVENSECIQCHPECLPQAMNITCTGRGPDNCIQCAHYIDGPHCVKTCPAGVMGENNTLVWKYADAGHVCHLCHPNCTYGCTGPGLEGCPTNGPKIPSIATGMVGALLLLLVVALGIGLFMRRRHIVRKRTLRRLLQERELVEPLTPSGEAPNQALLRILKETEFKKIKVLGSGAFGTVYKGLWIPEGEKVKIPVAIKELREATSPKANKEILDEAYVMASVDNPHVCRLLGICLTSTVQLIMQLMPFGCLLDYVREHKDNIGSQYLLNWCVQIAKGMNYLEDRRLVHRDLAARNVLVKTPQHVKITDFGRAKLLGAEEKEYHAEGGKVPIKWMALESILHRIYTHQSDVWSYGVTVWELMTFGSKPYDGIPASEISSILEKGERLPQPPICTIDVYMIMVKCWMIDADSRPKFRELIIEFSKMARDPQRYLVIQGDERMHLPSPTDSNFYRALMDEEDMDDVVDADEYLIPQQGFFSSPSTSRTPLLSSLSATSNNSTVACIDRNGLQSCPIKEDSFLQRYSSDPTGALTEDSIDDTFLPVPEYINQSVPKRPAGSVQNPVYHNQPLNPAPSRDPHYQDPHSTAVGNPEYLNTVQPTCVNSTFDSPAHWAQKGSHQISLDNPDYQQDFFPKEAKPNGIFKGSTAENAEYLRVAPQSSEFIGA

[21] = tested on: Epidermal growth factor receptor (Homo sapiens), P00533 [L858R,T790M]; conditions: 100 nM
[22] = tested on: Epidermal growth factor receptor (Homo sapiens), P00533 [T790M]; conditions: 100 nM
Chain of Epidermal growth factor receptor (Homo sapiens), P00533 [T790M] (P00533 whole entry T790M): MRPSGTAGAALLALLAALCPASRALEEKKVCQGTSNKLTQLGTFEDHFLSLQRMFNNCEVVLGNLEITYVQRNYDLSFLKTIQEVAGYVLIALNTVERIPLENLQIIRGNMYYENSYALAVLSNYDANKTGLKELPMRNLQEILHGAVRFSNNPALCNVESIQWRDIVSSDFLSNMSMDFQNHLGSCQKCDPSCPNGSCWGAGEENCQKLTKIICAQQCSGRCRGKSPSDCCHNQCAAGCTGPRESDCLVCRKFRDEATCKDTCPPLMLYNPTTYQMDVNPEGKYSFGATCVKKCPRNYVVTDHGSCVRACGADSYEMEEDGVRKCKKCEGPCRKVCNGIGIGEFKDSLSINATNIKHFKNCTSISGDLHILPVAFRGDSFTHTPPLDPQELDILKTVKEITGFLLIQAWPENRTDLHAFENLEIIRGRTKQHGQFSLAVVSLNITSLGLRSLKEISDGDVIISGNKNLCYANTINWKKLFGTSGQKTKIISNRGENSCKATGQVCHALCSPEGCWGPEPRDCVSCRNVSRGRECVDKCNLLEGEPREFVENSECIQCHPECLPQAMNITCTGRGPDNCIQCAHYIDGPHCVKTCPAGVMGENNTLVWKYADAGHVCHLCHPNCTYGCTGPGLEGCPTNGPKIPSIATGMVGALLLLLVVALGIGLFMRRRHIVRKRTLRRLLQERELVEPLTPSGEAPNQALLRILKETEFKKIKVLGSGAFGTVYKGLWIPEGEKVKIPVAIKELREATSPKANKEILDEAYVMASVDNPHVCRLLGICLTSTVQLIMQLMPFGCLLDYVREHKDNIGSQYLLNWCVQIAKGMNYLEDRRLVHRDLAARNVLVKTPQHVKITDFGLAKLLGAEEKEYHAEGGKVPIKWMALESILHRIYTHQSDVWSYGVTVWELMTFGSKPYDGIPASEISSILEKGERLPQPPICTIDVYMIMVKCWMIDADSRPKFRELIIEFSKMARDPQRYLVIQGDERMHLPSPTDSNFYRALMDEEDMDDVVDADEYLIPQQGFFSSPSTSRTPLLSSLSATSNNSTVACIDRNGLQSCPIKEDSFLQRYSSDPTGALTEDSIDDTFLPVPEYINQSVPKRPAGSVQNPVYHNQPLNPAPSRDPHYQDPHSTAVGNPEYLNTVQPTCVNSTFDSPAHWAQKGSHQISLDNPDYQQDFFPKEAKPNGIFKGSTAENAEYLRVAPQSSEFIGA

[23] = tested on: Epidermal growth factor receptor (Homo sapiens), P00533 [T790M]; conditions: H1975, 0.3 to 30 nM
[24] = tested on: Epidermal growth factor receptor (Homo sapiens), P00533 [T790M]; conditions: H1975, 0.3 to 30 nM; remark: listed apart in the source
[25] = tested on: Epidermal growth factor receptor (Homo sapiens), P00533 [T790M]; conditions: H1975, 0.3 to 30 nM; remark: listed apart in the source

Row | Structure (SMILES) | IC50 [1] | IC50 [2] | Kd [8] | Kd [9] | further results
1 | C=CC(=O)Nc1cccc(-n2c(=O)c(-c3ccccc3)cc3cnc(Nc4ccc(N5CCN(C)CC5)cc4OC)nc32)c1 | 7.8 nM | 0.2 nM | 2.5 nM | 0.5 nM | –
2 | C=CC(=O)Nc1cccc(-n2c(=O)cc(C)c3cnc(Nc4ccc(N5CCN(C)CC5)cc4OC(C)C)nc32)c1 | > 1000 nM | 78 nM | – | – | –
3 | C=CC(=O)Nc1cccc(-n2c(=O)cc(C(F)(F)F)c3cnc(Nc4ccc(N5CCN(C)CC5)cc4OC)nc32)c1 | > 1000 nM | 39 nM | – | – | –
4 | C=CC(=O)Nc1cccc(Oc2nc(Nc3ccc(N4CCN(C)CC4)cc3OC)ncc2Cl)c1 | – | – | – | – | inhibition [23]: Active; inhibition [24]: Active; inhibition [25]: Active
5 | C=CC(=O)Nc1cccc(-n2c(=O)cc(C3CC3)c3cnc(Nc4ccc(N5CCN(C)CC5)cc4OC)nc32)c1 | 120 nM | 10 nM | 57 nM | 2.2 nM | –
6 | C=CC(=O)Nc1cccc(-n2c(=O)cc(C(C)C)c3cnc(Nc4ccc(N5CCN(C)CC5)cc4OC)nc32)c1 | 98 nM | 94 nM | – | – | –
7 | C=CC(=O)Nc1cccc(-n2c(=O)cc(C)c3cnc(Nc4ccc(N5CCN(C)CC5)cc4OCCC)nc32)c1 | 270 nM | 19 nM | – | – | –
8 | C=CC(=O)Nc1cccc(-n2c(=O)cc(C)c3cnc(Nc4ccc(N5CCN(C)CC5)cc4OCC)nc32)c1 | 170 nM | 11 nM | 350 nM | 1.2 nM | –
9 | C=CC(=O)Nc1cccc(-n2c(=O)c(C)cc3cnc(Nc4ccc(N5CCN(C)CC5)cc4OC)nc32)c1 | 16 nM | 1.3 nM | 6.2 nM | 0.88 nM | –
10 | C=CC(=O)Nc1cccc(-n2c(=O)cc(C)c3c(C)nc(Nc4ccc(N5CCN(C)CC5)cc4OC)nc32)c1 | > 1000 nM | 280 nM | – | – | –
11 | C=CC(=O)Nc1cccc(-n2c(=O)cc(CC)c3cnc(Nc4ccc(N5CCN(C)CC5)cc4OC)nc32)c1 | 114 nM | 6.7 nM | 140 nM | 1.8 nM | –
12 | C=CC(=O)Nc1cccc(-n2c(=O)c(Cc3ccccc3)cc3cnc(Nc4ccc(N5CCN(C)CC5)cc4OC)nc32)c1 | 1 nM | 0.5 nM | 1.2 nM | 0.5 nM | Ratio IC50 [7]: 2

The next lines start with results.

Row | IC50 [1] | IC50 [2] | Kd [8] | Kd [9] | Structure (SMILES) | further results
13 | 240 nM | 0.8 nM | 48 nM | 0.26 nM | C=CC(=O)Nc1cccc(-n2c(=O)cc(C)c3cnc(Nc4ccc(N5CCN(C)CC5)cc4OC)nc32)c1 | Activity [3]: Non-toxic; IC50 [4]: 2.8 nM; IC50 [5]: 870 nM; Ratio IC50 [6]: 311; Ratio IC50 [7]: 300; Selectivity ratio [10]: 185; Activity [11]: Non-toxic; Activity [12]: Non-toxic; inhibition (INH) [13]: Active; inhibition (INH) [14]: Active; inhibition (INH) [15]: Active; Ratio IC50 [16]: >1000; Ratio IC50 [17]: >1000; Ratio IC50 [18]: >1000; Ratio IC50 [19]: >1000; inhibition [20]: Active; inhibition [21]: 99.5%; inhibition [22]: < 65%
14 | > 1000 nM | > 1000 nM | – | – | C=CC(=O)Nc1cccc(-n2c(=O)cc(-c3ccc(-c4ccccc4)cc3)c3cnc(Nc4ccc(N5CCN(C)CC5)cc4OC)nc32)c1 | –
15 | 210 nM | 95 nM | – | – | C=CC(=O)Nc1cccc(-n2c(=O)cc(N(C)C)c3cnc(Nc4ccc(N5CCN(C)CC5)cc4OC)nc32)c1 | –
16 | 20 nM | 1.6 nM | 4.3 nM | 0.91 nM | C=CC(=O)Nc1cccc(-n2c(=O)c(-c3ccccc3)c(C)c3cnc(Nc4ccc(N5CCN(C)CC5)cc4OC)nc32)c1 | –
17 | 970 nM | 17.8 nM | – | – | C=CC(=O)Nc1cccc(-n2c(=O)cc(CCC)c3cnc(Nc4ccc(N5CCN(C)CC5)cc4OC)nc32)c1 | –
18 | 97 nM | 21 nM | – | – | C=CC(=O)Nc1cccc(-n2c(=O)cc(-c3ccccc3)c3cnc(Nc4ccc(N5CCN(C)CC5)cc4OC)nc32)c1 | –
19 | 15 nM | 0.5 nM | 14 nM | 0.43 nM | C=CC(=O)Nc1cccc(-n2c(=O)ccc3cnc(Nc4ccc(N5CCN(C)CC5)cc4OC)nc32)c1 | Ratio IC50 [7]: 30; Selectivity ratio [10]: 32.5
